Our source for the IC50 values is US10590118B2, “Bicyclic heterocyclic derivatives as bromodomain inhibitors” (Orion Corporation, priority 2014, dated 2020).

pIC50: −log10 of the molar value.

In the test the target is T1, Bet bromodomain protein (BRD4) (Homo sapiens, UniProt O60885).
T1 construct: made in house
The test can be described thus: Bet bromodomain TR-FRET assay. The class given is binding. Particulars: 300 nM acetyl histone peptide substrate, results given as Group A/B/C. Here is the method:
In-Vitro Biochemical Data of bicyclic heterocyclic derivatives in time-resolved fluorescence resonance energy transfer (TR-FRET) assay.
The Bet brommodomain TR-FRET assay has been used to identify compounds that bind to bet bromodomain and prevent its interaction with acetylated histone peptides.
In the assay, optimized concentration of in-house Bet bromodomain protein (BRD4) and 300 nM of acetyl histone peptide substrate were diluted in assay buffer (50 mM HEPES, pH: 7.5, 50 mM NaCl, 500 μM CHAPS) and were added to the positive control and test control wells in a 384 well plate. Substrate control wells have 300 nM of acetyl histone peptide substrate diluted in assay buffer. Buffer blank wells were added with assay buffer. The reaction mixture was allowed for incubation at room temperature for 30 mins. Stock solutions of test compounds at 20 mM DMSO are prepared. Compounds are serially diluted and added to the test wells in 384-well polypropylene plates. The reaction mixture was further incubated for 30 mins at room temperature on a plate shaker. 2 nM of Europium labeled streptavidn and 10 nM of XL-665 labeled antibody diluted in detection buffer (50 mM HEPES, pH: 7.5, 50 mM NaCl, 500 μM CHAPS and 800 mM KF) were added to all the wells excluding the buffer blank wells. The reaction plate was incubated for additional 30 mins at room temperature on plate shaker. The plate was read in Perkin Elmer WALLAC 1420 Multilabel Counter Victor 3 (Ex: 340 nm Em: 615 and 665 nm). The amount of displacement of the peptide was measured as ratio of specific 665 nm energy transfer signal to 615 nm signals. The compounds IC50 was determined by fitting the dose response data to sigmoid curve fitting equation using Graph Pad Prism software V5.
(TR-FRET usually uses a lanthanide donor and a delayed reading to cut background.)
With `COc1cc2c(ccc(=O)n2Cc2ccccn2)cc1-c1c(C)noc1C` [Compound 46, 6-(3,5-dimethylisoxazol-4-yl)-7-methoxy-1-(pyridin-2-ylmethyl)quinolin-2(1H)-one], the pIC50 (in general, the IC50 on a negative log10 scale, so that one unit is a factor of ten) is not below 6.00.
`COc1cc2c(ccc(=O)n2Cc2ccc(C(F)(F)F)cn2)cc1-c1c(C)noc1C` [Compound 47, 6-(3,5-dimethylisoxazol-4-yl)-7-methoxy-1-((5-(trifluoromethyl)pyridin-2-yl)methyl)quinolin-2(1H)-one] showed a negative-log IC50 (pIC50) not below 6.00.
`COc1cc2c(cc1-c1c(C)noc1C)C(C)(C)CC(=O)N2Cc1ccccn1` [Compound 48, 6-(3,5-dimethylisoxazol-4-yl)-7-methoxy-4,4-dimethyl-1-(pyridin-2-ylmethyl)-3,4-dihydroquinolin-2(1H)-one] had a negative-log IC50 (pIC50) of less than 5.52.
Then `COc1cc2c(cc1-c1c(C)noc1C)OC(C)(C)C(=O)N2Cc1cccnc1` [Compound 49, 7-(3,5-dimethylisoxazol-4-yl)-6-methoxy-2,2-dimethyl-4-(pyridin-3-ylmethyl)-2H-benzo[b][1,4]oxazin-3(4H)-one], with not below 6.00; and `COc1cc2c(cc1-c1c(C)noc1C)cc(C)c(=O)n2Cc1ccccn1` [Compound 50, 6-(3,5-dimethylisoxazol-4-yl)-7-methoxy-3-methyl-1-(pyridin-2-ylmethyl)quinolin-2(1H)-one], with not below 6.00.
The compound `COc1cc2c(cc1-c1c(C)noc1C)C(=O)C(C)(C)C(=O)N2Cc1ccccn1` [Compound 51, 6-(3,5-dimethylisoxazol-4-yl)-7-methoxy-3,3-dimethyl-1-(pyridin-2-ylmethyl)quinoline-2,4(1H,3H)-dione] showed a pIC50 of 5.52 to 6.00.
Consider `COc1cc2c(cc1-c1c(C)noc1C)CC(C)(C)C(=O)N2Cc1ccccn1` [Compound 52, 6-(3,5-dimethytisoxazol-4-yl)-7-methoxy-3,3-dimethyl-1-(pyridin-2-ylmethyl)-3,4-dihydroquinolin-2(1H)-one], for which the pIC50 is less than 5.52.
Consider `COc1cc2c(cc1-c1c(C)noc1C)c(C)cc(=O)n2Cc1ccccn1` [Compound 53, 6-(3,5-dimethylisoxazol-4-yl)-7-methoxy-4-methyl-1-(pyridin-2-ylmethyl)quinolin-2(1H)-one], for which the pIC50 was 5.52 to 6.00.
`COc1cc2c(cc1-c1c(C)noc1C)c(C(F)(F)F)cc(=O)n2Cc1ccccn1` [Compound 54, 6-(3,5-dimethytisoxazol-4-yl)-7-methoxy-1-(pyridin-2-ylmethyl)-4-(trifluoromethyl)quinolin-2(1H)-one] had a pIC50 of less than 5.52.
The compound `COc1cc2c(cc1-c1c(C)noc1C)c(C1CC1)cc(=O)n2Cc1ccccn1` [Compound 55, 4-cyclopropyl-6-(3,5-dimethytisoxazol-4-yl)-7-methoxy-1-(pyridin-2-ylmethyl)quinolin-2(1H)-one] showed a pIC50 not below 6.00.
`COc1cc2c(ccc(=O)n2Cc2ccc(Cl)cc2)cc1-c1c(C)noc1C` [Compound 56, 1-(4-chlorobenzyl)-6-(3,5-dimethylisoxazol-4-yl)-7-methoxyquinolin-2(1H)-one]: the pIC50 was not below 6.00.
Then `COc1cc2c(ccc(=O)n2Cc2ccc3ccccc3n2)cc1-c1c(C)noc1C` [Compound 57, 6-(3,5-dimethylisoxazol-4-yl)-7-methoxy-1-(quinolin-2-ylmethyl)quinolin-2(1H)-one], with 5.52 to 6.00.
In turn, `COc1cc2c(cc1-c1c(C)noc1C)cc(C)c(=O)n2Cc1ccc(Cl)cn1` [Compound 58, 1-((5-chloropyridin-2-yl)methyl)-6-(3,5-dimethylisoxazol-4-yl)-7-methoxy-3-methylquinolin-2(1H)-one] gave a negative logarithm of the IC50 (pIC50) not below 6.00.
In the case of `COc1cc2c(cc1-c1c(C)noc1C)cc(C)c(=O)n2CCc1ccc(Cl)cc1` [Compound 59, 1-(4-chlorophenethyl)-6-(3,5-dimethylisoxazol-4-yl)-7-methoxy-3-methylquinolin-2(1H)-one], the pIC50 was not below 6.00.
Consider `COc1cc2c(cc1-c1c(C)noc1C)OCC(=O)N2CC1CCNCC1` [Compound 60, 7-(3,5-dimethylisoxazol-4-yl)-6-methoxy-4-(piperidin-4-ylmethyl)-2H-benzo[b][1,4]oxazin-3(4H)-one], for which the pIC50 was less than 5.52.
In the case of `COc1cc2c(ccc(=O)n2Cc2ccccn2)cc1-c1ccc(O)nc1` [Compound 61, 6-(6-hydroxypyridin-3-yl)-7-methoxy-1-(pyridin-2-ylmethyl)quinolin-2(1H)-one], the negative-log IC50 (pIC50) was less than 5.52.
`COc1cc2c(ccc(=O)n2Cc2ccccn2)cc1-c1c(C2CC2)noc1C` [Compound 62, 6-(3-cyclopropyl-5-methylisoxazol-4-yl)-7-methoxy-1-(pyridin-2-ylmethyl)quinolin-2(1H)-one] gave a pIC50 not below 6.00.
`COc1cc2c(ccc(=O)n2Cc2ccccn2)cc1-c1cnoc1C` [Compound 63, 7-methoxy-6-(5-methylisoxazol-4-yl)-1-(pyridin-2-ylmethyl)quinolin-2(1H)-one] had a negative-log IC50 (pIC50) of less than 5.52.
The compound `COc1cc2c(ccc(=O)n2Cc2ccccn2)cc1-c1conc1C` [Compound 64, 7-methoxy-6-(3-methylisoxazol-4-yl)-1-(pyridin-2-ylmethyl)quinolin-2(1H)-one] had a negative logarithm of the IC50 (pIC50) not below 6.00.
Take `COc1cc2c(cc1-c1c(C)n[nH]c1C)OCC(=O)N2Cc1ccc(Cl)cc1` [Compound 65, 4-(4-chlorobenzyl)-7-(3,5-dimethyl-1H-pyrazol-4-yl)-6-methoxy-2H-benzo[b][1,4]oxazin-3(4H)-one]: the pIC50 is not below 6.00.
In turn, `COc1cc2c(ccc(=O)n2Cc2ccccn2)cc1-c1c(C)n[nH]c1C` [Compound 66, 6-(3,5-dimethyl-1H-pyrazol-4-yl)-7-methoxy-1-(pyridin-2-ylmethyl)quinolin-2(1H)-one] had a pIC50 not below 6.00.
Then `COc1cc2c(ccc(=O)n2Cc2ccc(Cl)nc2)cc1-c1c(C)noc1C` [Compound 67, 1-((6-chloropyridin-3-yl)methyl)-6-(3,5-dimethylisoxazol-4-yl)-7-methoxyquinolin-2(1H)-one], with not below 6.00.
As for `COc1cc2c(cc1-c1c(C)noc1C)cc(C1CCCCC1)c(=O)n2Cc1ccccn1` [Compound 68, 3-cyclohexyl-6-(3,5-dimethylisoxazol-4-yl)-7-methoxy-1-(pyridin-2-ylmethyl)quinolin-2(1H)-one], the figure is not below 6.00.
Consider `COc1cc2c(cc1-c1c(C)noc1C)cc(C1CCCCC1)c(=O)n2Cc1cccnc1` [Compound 69, 3-cyclohexyl-6-(3,5-dimethylisoxazol-4-yl)-7-methoxy-1-(pyridin-3-ylmethyl)quinolin-2(1H)-one], for which the pIC50 was not below 6.00.
In turn, `COc1cc2c(cc1-c1c(C)noc1C)OCC(=O)N2Cc1ccc(O)nc1` [Compound 70] gave a pIC50 of less than 5.52.
Compound `COCCOc1cc2c(cc1-c1c(C)noc1C)OCC(=O)N2Cc1ccncc1` [Compound 71, 7-(3,5-dimethylisoxazol-4-yl)-6-(2-methoxyethoxy)-4-(pyridin-4-ylmethyl)-2H-benzo[b][1,4]oxazin-3(4H)-one] showed a pIC50 of less than 5.52.
The compound `Cc1noc(C)c1-c1cc2ccc(=O)n(Cc3ccccn3)c2cc1O` [Compound 72, 6-(3,5-dimethylisoxazol-4-yl)-7-hydroxy-1-(pyridin-2-ylmethyl)quinolin-2(1H)-one] had a pIC50 not below 6.00.
Compound `Cc1noc(C)c1-c1cc2ccc(=O)n(Cc3ccc(Cl)cn3)c2cc1O` [Compound 73, 1-((5-chloropyridin-2-yl)methyl)-6-(3,5-dimethylisoxazol-4-yl)-7-hydroxyquinolin-2(1H)-one] had a pIC50 not below 6.00.
`Cc1noc(C)c1-c1cc2ccc(=O)n(Cc3ccccn3)c2cc1OCC(F)(F)F` [Compound 74, 6-(3,5-dimethylisoxazol-4-yl)-1-(pyridin-2-ylmethyl)-7-(2,2,2-trifluoroethoxy)quinolin-2(1H)-one] gave a pIC50 not below 6.00.
In turn, `Cc1noc(C)c1-c1cc2ccc(=O)n(Cc3ccccn3)c2cc1OCCN1CCOCC1` [Compound 75, 6-(3,5-dimethylisoxazol-4-yl)-7-(2-morpholinoethoxy)-1-(pyridin-2-ylmethyl)quinolin-2(1H)-one] had a pIC50 of 5.52 to 6.00.
As for `Cc1noc(C)c1-c1cc2ccc(=O)n(Cc3ccccn3)c2cc1OCCN(C)C` [Compound 76, 7-(2-(dimethylamino)ethoxy)-6-(3,5-dimethylisoxazol-4-yl)-1-(pyridin-2-ylmethyl)quinolin-2(1H)-one], the pIC50 is less than 5.52.
On to `Cc1noc(C)c1-c1cc2ccc(=O)n(Cc3ccccn3)c2cc1OCC1CCNCC1` [Compound 77, 6-(3,5-dimethylisoxazol-4-yl)-7-(piperidin-4-ylmethoxy)-1-(pyridin-2-ylmethyl)quinolin-2(1H)-one], for which the pIC50 is not below 6.00.
The compound `CCCCOc1cc2c(ccc(=O)n2Cc2ccccn2)cc1-c1c(C)noc1C` [Compound 78, 7-butoxy-6-(3,5-dimethylisoxazol-4-yl)-1-(pyridin-2-ylmethyl)quinolin-2(1H)-one] gave a negative logarithm of the IC50 (pIC50) not below 6.00.
On to `C=CCOc1cc2c(ccc(=O)n2Cc2ccccn2)cc1-c1c(C)noc1C` [Compound 79, 7-(allyloxy)-6-(3,5-dimethylisoxazol-4-yl)-1-(pyridin-2-ylmethyl)quinolin-2(1H)-one], for which the pIC50 was not below 6.00.
